Source: patent US20060234909A1, “Compositions and methods for increasing drug efficiency” (priority 2003, published 2006)
Primed or numbered codes have the meaning given here. * marks the point of attachment. 3Am‑VBL = vinblastine (VBL) conjugate; ALK(6) = not defined here; PEG(11) = PEG(11) linker; PEG(29) = PEG(29) linker; 10Es = not defined here; PEG(11)″ = PEG11 linker; 3Am = not defined here; Cbz = O=C(OCc1ccccc1)*; Boc = CC(C)(C)OC(=O)*; Piv = CC(C)(C)C(=O)*; VBL = vinblastine; PXL = paclitaxel

Legend:
[1] = tested on: tubulin; assay: Fluorescence-based tubulin polymerization assay (MPA; enhancement for paclitaxel, inhibition for vinblastine); type: biochemical
From the text: Drug-linker constructs may further be screened using functional assays predictive of biological activity. […] Tubulin assembly or inhibition thereof may be monitored by fluorescence using the CytoDYNAMIX Screen™ 10 kit available from Cytoskeleton (1830 S. Acoma St., Denver, Colo.). […] Emission is monitored at 405 nm with excitation at 360 nm. […] Tubulin assembly or inhibition may also be monitored by light scattering which is approximated by the apparent absorption at 350 nm. For paclitaxel drug conjugates BSA is employed to prevent aggregation and glycerol, which is a tubulin polymerization enhancer, is omitted from the kit to increase the signal to noise ratio.
The assay kit (#BK011) was purchased from Cytoskeleton (Denver, Colo.). The assays were carried out according to the manufacturer's instructions, except that 1 mg/ml BSA (Sigma #A3059) was included in all assays. […] Parent drugs and conjugates were tested at 0.75, 1.5, 3 and 10 micromolar final concentration and results represent a comparison of conjugate and parent drug curves obtained from the linear range of the dose responses.
(±SD) represent the average of all tests carried out for all lots of a given compound.

[2] = tested on: MCF-7 breast carcinoma; assay: Cytotoxicity assay (monolayer), MCF-7; type: cell-based; settings: MCF7, ML (monolayer); read-out: MCF7 (EC50 Ave) ML;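 note: cells treated 72 h with 6-8 compound doses versus DMSO vehicle controls, EC50 fitted by 4-parameter dose-response curves, averaged across all tests and lots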
[3] = tested on: HT-29 colorectal carcinoma; assay: Cytotoxicity assay (monolayer), HT-29; type: cell-based; settings: HT29, ML (monolayer); read-out: HT29 (EC50 Ave) ML;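 note: monolayer cultures tested in triplicate, compound exposure for three days against DMSO vehicle controls, EC50 fitted from dose-response curves and averaged across all tests and lots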
[4] = tested on: HUVEC; assay: Cytotoxicity assay (monolayer), HUVEC; type: cell-based; settings: ML (monolayer), read-out: HUVEC (EC50 Ave) ML
[5] = tested on: Normal human foreskin fibroblasts (HFF); settings: read-out: HFF (EC50 Ave) ML; HFF, ML (monolayer)
[6] = tested on: MCF-7 cells; settings: read-out: MCF7 (EC50 Ave) SA; MCF7, SA (soft agar)
[7] = tested on: HT-29 cells; settings: read-out: HT29 (EC50 Ave) SA; HT29, SA (soft agar)
[8] = target: T1, Human Src (Homo sapiens, UniProt P12931); assay: Src kinase assay (PKLight ATP utilization, substrate phosphorylation as % of parent peptide); type: biochemical
T1 construct: purchased Upstate (Charlottesville, Va.) 14-326
Experimental: Another test may involve monitoring the consumption of ATP. For example, ATP concentrations at time 0 or after 4 hour incubation may be monitored by luciferase reaction (PKLight kit obtained from Cambrex Corporation, One Meadowlands Plaza, East Rutherford, N.J. 07073), which generate a luminescence readout in the presence of ATP. Assays are initiated by mixing a kinase and a peptide in the presence of 40 μM ATP. After 4 hour of incubation at 30° C., PKLight reagent is added and mixed well, and luminescence readout measured. The rate of peptide phosphorylation is then directly related to the rate of decrease in the observed luminescence. Based on the first test, linkers of appropriate lengths and peptides with an effective amount of kinase activity which may be expected to be retained in the drug conjugate may be found.
Human Src (#14-326) and Akt (#14-276) kinases were purchased from Upstate (Charlottesville, Va.). Kinase reactions were carried out in 50 μl kinase reaction cocktail (25 mM Tris-HCl, pH 7.5, 5 μM β-glycerophosphate, 2 mM DTT, 0.1 mM Na3VO4, 10 mM MgCl2, 1 mg/ml BSA, […], 0.5 to 1.0 units enzyme). Substrates (peptide or drug-peptide conjugate in […]) were added (25, 50 and 100 μM) and the reaction was incubated for 2-5 hours at 30° C. PKLight reagent (23 μl) (Cambrex BioSciences, Rockland, Me.) was mixed with […] of the above kinase reaction and ATP utilization relative to no substrate and no ATP controls was determined by measuring luminescence with a SpectraMax Gemini EM plate reader (Molecular Devices, Sunnyvale, Calif.). Peptide substrates for Src and Akt have been described. For examples, see Lou et al. Letters in Peptide Science, 2, 289-296 (1995); Lou et al. Bioorganic & Medicinal Chemistry, 4, 677-682 (1996); Alessi et al. FEBS Letters, 399, 333-338 (1996). Substrate phosphorylation potential was determined from the linear portion of the substrate concentration dose response as a percentage of the activity observed with the parent peptide used for drug conjugation.

Compound | Ave. MPA Act. [1] | EC50 [2] [µM] | EC50 [3] [µM] | EC50 [4] [µM] | EC50 [5] [µM] | EC50 [6] [µM] | EC50 [7] [µM] | Average src kinase activity [8]
CC[C@]1(O)C[C@@H]2CN(CCc3c([nH]c4ccccc34)[C@@](C(=O)OC)(c3cc4c(cc3OC)N(C)[C@H]3[C@@](O)(C(=O)NCCCCCCN)[C@H](O)[C@]5(CC)C=CCN6CC[C@]43[C@@H]65)C2)C1 [VBL-3Am-ALK(6)-NH2] | C (C>80) | < 0.02 | < 0.02 | < 0.02 | < 0.02 | < 0.02 | < 0.02 | –
H-YIYGSFK-PEG(29)-3Am-VBL x 2TFA (H-YIYGSFK-{PEG(29)-3Am-VBL}; reading uncertain; also: 2TFA salt) | A (A<50) | < 0.02 | 0.02 to 0.1 | > 0.1 | 0.02 to 0.1 | – | – | A (A<20)
CBz-RPRTSSF-PEG(11)-3Am-VBL (N-CBz; PEG(11) linker; vinblastine conjugate) | – | < 0.02 | < 0.02 | – | – | 0.02 to 0.1 | – | –
BOC-YIYGSFS-PEG(11)-3Am-VBL (N-BOC; PEG(11) linker; vinblastine conjugate) | C (C>80) | > 0.1 | > 0.1 | > 0.1 | > 0.1 | – | – | C (C>40)
CBz-E(Bzl)YIFGSFK(BOC)-PEG(11)-3Am-VBL | A (A<50) | < 0.02 | > 0.1 | > 0.1 | > 0.1 | – | – | A (A<20)
Ac-YIYGSFS-PEG(11)-3Am-VBL (N-acetyl; PEG(11) linker; vinblastine conjugate) | B (B=50-80) | > 0.1 | > 0.1 | > 0.1 | > 0.1 | – | – | C (C>40)
H-YIYGSFK-ALK(6)-10Es-PXL (H-YIYGSFK-{ALK(6)-10Es-PXL}; reading uncertain) | B (B=50-80) | > 0.1 | > 0.1 | – | > 0.1 | – | – | C (C>40)
CC(=O)O[C@@]12CO[C@@H]1C[C@H](O)[C@@]1(C)C(=O)[C@H](O)C3=C(C)[C@@H](OC(=O)[C@H](O)[C@@H](NC(=O)c4ccccc4)c4ccccc4)C[C@@](O)([C@@H](OC(=O)c4ccccc4)[C@H]21)C3(C)C [10 Deacetyl Taxol] | – | 0.02 to 0.1 | < 0.02 | < 0.02 | < 0.02 | < 0.02 | < 0.02 | –
BOC-YI(phospho)YGSFK(BOC)-PEG(11)-3Am-VBL (Boc-YIYGSFK(Boc)-{PEG(11)-3Am-VBL}; reading uncertain; also: phospho at I2 as written: I(phospho), printed as BOC-YI(phospho)YGSFK(BOC)-PEG(11)-3Am-VBL) | C (C>80) | > 0.1 | – | > 0.1 | 0.02 to 0.1 | – | – | C (C>40)
BOC-YIYGSFK(BOC)-PEG(11)-3Am-VBL (N-BOC; BOC side chain; PEG(11); vinblastine conjugate) | B (B=50-80) | 0.02 to 0.1 | 0.02 to 0.1 | > 0.1 | > 0.1 | – | – | A (A<20)
CH3O(CH2CH2O)3CH2CH2(C═O)YIYGSFS-PEG(11)-3Am-VBL (N-methoxy-PEG acyl; PEG(11); vinblastine conjugate) | C (C>80) | > 0.1 | > 0.1 | > 0.1 | > 0.1 | – | – | C (C>40)
H-GIYWHHY-PEG(11)-3Am-VBL (H-GIYWHHY-{PEG(11)-3Am-VBL}; reading uncertain) | B (B=50-80) | > 0.1 | > 0.1 | > 0.1 | > 0.1 | – | – | B (B=20-40)
Ac-YIFGSFK-PEG(11)-3Am-VBL (N-acetyl; PEG(11) linker; vinblastine conjugate) | B (B=50-80) | > 0.1 | > 0.1 | > 0.1 | > 0.1 | – | – | C (C>40)
Ac-EYIYGSFR-PEG(13)-10Ca-PXL (N-acetyl, PEG13, paclitaxel conjugate) | B (B=50-80) | > 0.1 | > 0.1 | > 0.1 | > 0.1 | – | – | B (B=20-40)
BOC-GIYWHHY-PEG(29)-3Am-VBL (N-BOC; PEG(29) linker; vinblastine conjugate) | B (B=50-80) | > 0.1 | – | > 0.1 | > 0.1 | – | – | A (A<20)
Ac-YIYGSFH-PEG(11)-3Am-VBL (N-acetyl; PEG(11) linker; vinblastine conjugate) | C (C>80) | > 0.1 | > 0.1 | > 0.1 | > 0.1 | – | – | C (C>40)
CBz-YIYGSFK(CBz)-PEG(11)-3Am-VBL (Cbz-YIYGSFK(Cbz)-{PEG(11)-3Am-VBL}; reading uncertain; also: printed as CBz-YIYGSFK(CBz)-PEG(11)-3Am-VBL) | B (B=50-80) | 0.02 to 0.1 | > 0.1 | 0.02 to 0.1 | 0.02 to 0.1 | – | – | A (A<20)
CBz-YIFGSFK-PEG(11)-3Am-VBL (N-CBz; PEG(11) linker; vinblastine conjugate) | B (B=50-80) | > 0.1 | > 0.1 | > 0.1 | > 0.1 | – | – | A (A<20)
Ac-YIFGSFK(BOC)-PEG(11)-3Am-VBL (Ac-YIFGSFK(Boc)-{PEG(11)″-3Am-VBL}; reading uncertain; also: printed as Ac-YIFGSFK(BOC)-PEG(11)-3Am-VBL) | B (B=50-80) | > 0.1 | > 0.1 | > 0.1 | > 0.1 | – | – | B (B=20-40)
Pv-EYIYGSFR-PEG(11)-3Am-VBL (Piv-EYIYGSFR-{PEG(11)-3Am‑VBL}) | C (C>80) | > 0.1 | > 0.1 | > 0.1 | > 0.1 | – | – | C (C>40)
H-YIYGSFK-PEG(11)-3Am-VBL (H-YIYGSFK-{PEG(11)-3Am-VBL}; reading uncertain) | B (B=50-80) | > 0.1 | > 0.1 | > 0.1 | 0.02 to 0.1 | – | – | C (C>40)
CH3O(CH2CH2O)3CH2CH2(C═)YIYGSFH-PEG(11)-3Am-VBL (N-methoxy-PEG acyl; PEG(11); vinblastine conjugate) | B (B=50-80) | > 0.1 | > 0.1 | > 0.1 | > 0.1 | – | – | C (C>40)
Ac-YIYGSFR-PEG(13)-10Ca-PXL (N-acetyl; PEG(13) linker; paclitaxel conjugate) | B (B=50-80) | > 0.1 | > 0.1 | > 0.1 | > 0.1 | – | – | C (C>40)
